Assay [1] relates to gastric mucosal damage induced by ethanolic HCl. In words: Gastritis model induced with ethanolic-HCl. The assay is classed as in vivo, SD male rat. The note with it: po, 1 h, rat; for inhibition in vivo at 0.3 mg/kg: 0.3 mg/kg p.o.; for inhibition in vivo at 1 mg/kg: 1 mg/kg p.o.; for inhibition in vivo at 3 mg/kg: 3 mg/kg p.o. On the procedure: Effect on the Gastritis Model Induced with Ethanolic-HCl.
SD male rat(250-350 g) was fasted for 24 hours. The compound was orally administered in suspension of 5% HPMC, and after 1 hour 1.5 mL of 150 mM HCl-80% ethanol was orally administered. After 1 hour the rat was sacrifieced and the stomach was extracted and the ulcer index was measured. The ulcer index was shown by the area of hemorrhage lesion(Mizui, T, et al., Jpn. J. Pharmacol. 1983, 33: 939).

The subject of the next assay is neutrophils. In words: Luminol-dependent chemiluminescence of neutrophils induced by FMLP. The assay is classed as cell-based. The note with it: Neutrophil, 1 μM FMLP, 0.07 mM luminol; read-out: IC50, inhibition of chemiluminescence generated by neutrophil activation. How it is done:
Measurement of luminol-dependent chemiluminescencei iof neutrophil induced by FMLP.
20 mL of 12% sodium caseinate-0.9% saline was administered intraperitoneally (Newsby, A. C., Biochem. J., 1980, 186: 907,. After 20 hours, the intraperitoneal exudate was extracted under ether anesthesia. The exudate was centrifuged, and erythrocytes were removed by hypotonic lysis, and then neutrophil was washed. Neutrophil was ascertained by Wright's dyeing method, and viability was measured by Trypan blue exclusion test. Chemiluminescence was measured by Topcount (Packard Co.). The suspension of 1.5×10^6 of granulocytes, 1 μM of FMLP, 0.07 mM of luminol and the compound in HBSS was used (Dahlgren, C., et al., Infect. Immun., 1985 47: 326-328).
**IC50 (μg/mL): Concentration of the compound at inhibiting
chemiluminescence generated by neutrophil activation to 50%

The subject of a further assay is TNBS-induced colitis. In words: TNBS-induced colitis model, oral administration. The assay is classed as in vivo, male SD rats. Conditions: for lesion scores: once a day for 13 days, rat; for adhesion degree / dilation and extention degree: score 0-3, rat. How it is done:
Experiment on the Model of Inflammatory Bowl Diseases Induced with TNBS
7 week-aged male SD rats were fasted for a day, and the rats were put under anesthesia and canula (diameter 3 mm) was inserted into the anus to the depth of 8 cm. 25 mg/mL of TNBS (Trinitrobenzene sulfonic acid) dissolved in 50% ethanol solution was injected to each rat and the rats were positioned at feature of tail up for 1 minute. The solution flowing out was removed and the rats were once washed with 1.5 mL of saline solution. After colitis was induced, the compound was administered orally or intracolonically once a day for 13 days. For control, mesalazine (5-amino salicylic acid) was used for oral administration and prednisolone was used for rectal administration. At 14th day of experiment, each group of the rats were put under ether anesthesis, the colon was extracted and the degree of adhesion and extension of the large intestine were measured and their lesion scores were recorded. After 1% formalin solution was injected to the cavity of the extracted colon to inflate, the both ends of it were bonded with each other and it was all-fixed in 1% formalin solution for 2 hours. The all-fixed colon was cut to lengthy direction and washed to remove surrounding fat tissues and connective fissaes. After cecum was removed, the weight of the colon and the rectum was measured, and the area of ulcer lesion, and microscopic lesion were measured to mark scores according to the criterion. And they were fixed in 10% neutral formalin solution, and the tissue examination of lesion site was performed by general method to mark scores according to the criterion.
Clinical symptoms: Daily, we observed clinical symptoms and survival of the animals. And we measured the weight of the animals at the beginning day, third and eighth day of the experiment.
(0: non-adhesion, 1: adhesion exists but easily taken off by gloved hand, 2: more severe adhesion than 1 exists but easily taken off by scissors, 3: very severe adhesion exists, so it is difficult to be taken off by scissors because of possibility of its perforation.)
Degree of thickening and extension of the large intestine: We marked scores of the degree of thickness and extension of the large intestine according to the criterion, following the method of Kim et al., and compared with the average value of each group.
(0: lesion site non-existing, 1: a few degree of lesion, 2: intermediate degree of lesion, 3: severe degree of lesion)
We scored the lesion examined with the naked eye and compared the average value of each group. The standards of lesion scores as criterion of the damage of the colon by Wallace's method is as followings.
(0: normal, non-damaged, 1: congestion without ulcer 2: congestion and thickening of intestinal wall without ulcer, 3: an ulcer lesion without thickening of intestinal wall, 4: more than two ulcerous/inflammatory lesion, 5: more than two ulcerous/inflammatory lesion or the length of ulcerous/inflammatory lesion is more than 1 cm, 6-10: when the length of lesion is over 2 cm, one point increases everytime 1 cm of the length of ulcerous/inflammatory increases, for example, when the ulcer length is 3 cm, the point is 7.)
Microscopic evaluation: We trimmed the colon giving 3 cm interval from the rectum to the cecum, including the site of lesion examined with the naked eye, to make at least 4 specimens per an individual. […] When the lesion can not be examined with the naked eye, we trimmed the other specimen which has the lesion, with 3 cm interval.

Values after ≈ are worked out from the molar mass of the structure shown.

In assay [1], `COc1ccc(-c2cc(=O)c3c(O)c(OC)ccc3o2)cc1OC` [5-hydroxy-3',4',6-trimethoxy flavone] came in with an inhibition in vivo at 0.3 mg/kg of 38%, an inhibition in vivo at 1 mg/kg of 42% and an inhibition in vivo at 3 mg/kg of 64%.
In the same order, the values of `CNC(=O)COc1cc(OC)c2c(=O)cc(-c3ccc(OC)c(OC)c3)oc2c1` [7-(N-methylamidomethyloxy)-3',4',5-trimethoxy flavone] are 43%, 47% and 45%.
In assay [1], `COc1ccc(-c2cc(=O)c3cc(OC)c(OCC(=O)O)cc3o2)cc1OC` [7-carboxymethyloxy-3',4',6-trimethoxy flavone] yielded an inhibition in vivo at 0.3 mg/kg of 30%, an inhibition in vivo at 1 mg/kg of 31% and an inhibition in vivo at 3 mg/kg of 39%.
For `COc1ccc(C2CC(=O)c3c(cc(OCC(=O)O)c(OC)c3O)O2)cc1OC` (stereo not drawn) [7-carboxymethyloxy-5-hydroxy-3',4',6-trimethoxy flavanone], in the assay on neutrophils, the IC50 stood at 1.79 µg/mL (≈ 4.43 µM). In assay [1], this compound displayed an inhibition in vivo at 0.3 mg/kg of 0%, an inhibition in vivo at 1 mg/kg of 18% and an inhibition in vivo at 3 mg/kg of 50%.
In assay [1], `COc1ccc(C2CC(=O)c3c(OC)cc(O)cc3O2)cc1OC` (stereo not drawn) [7-hydroxy-3',4'5-trimethoxy flavanone, 7-hydroxy-3',4',5-trimethoxy flavanone] showed an inhibition in vivo at 0.3 mg/kg of 30%, an inhibition in vivo at 1 mg/kg of 57% and an inhibition in vivo at 3 mg/kg of 76%.
Regarding `COc1ccc(-c2cc(=O)c3c(OC)c(OC)c(OCCO)cc3o2)cc1OC` [7-hydroxyethyloxy-3',4',5,6-tetramethoxy flavone], the half-inhibitory concentration (IC50) in the assay on neutrophils is 0.13 µg/mL (≈ 0.323 µM). Besides, in assay [1], the inhibition in vivo at 0.3 mg/kg came out at 43%, at 1 mg/kg the inhibition in vivo was 50% and 3 mg/kg produced 51% inhibition in vivo.
Turning to `COc1ccc(-c2cc(=O)c3c(OC)cc(OCCO)cc3o2)cc1OC` [7-hydroxyethyloxy-3',4',5-trimethoxy flavone], in assay [1], the inhibition in vivo at 0.3 mg/kg amounted to 0%, testing at 1 mg/kg gave an inhibition in vivo of 34% and the inhibition in vivo at 3 mg/kg is 47%.
Take `COC(=O)COc1cc(OC)c2c(=O)cc(-c3ccc(OC)c(OC)c3)oc2c1` [7-methoxycarbomethyloxy-3',4',5-trimethoxy flavone]: the IC50 with neutrophils was determined as 0.95 µg/mL (≈ 2.37 µM).
With `Nc1ccc(O)c(C(=O)O)c1` [mesalazine, 5-amino salicylic acid, reference compound], in the assay with TNBS-induced colitis (25 mg/kg p.o.), the lesion scores worked out at 2.8; the adhesion degree is given as 1.4; the “dilation and extention degree” value was 0.9. Moreover, in the assay with TNBS-induced colitis (50 mg/kg p.o.), the lesion scores turned out to be 2.2; the adhesion degree amounted to 1.0; the “dilation and extention degree” value was determined as 1.1.

The record behind these values is patent US6025387A, “Gastroprotective flavone/flavanone compounds with therapeutic effect on inflammatory bowel disease” (Dong a Pharmaceutical Co., Ltd., priority 1996, dated 2000).
